# Patent US9708308B2, “Factor IXa inhibitors” (Merck Sharp & Dohme Corp., priority 2012, dated 2017)
# Target: Factor IXa (Homo sapiens, UniProt P00740)
# Assay: Determination of inhibitory activity against Factor IXa (cleavage of fluorescent peptide substrate)
# Type: biochemical
# Settings: cleavage of fluorescent peptide CH3SO2-D-CHG-Gly-Arg-AFC, release of AFC; read-out: FIXa IC50
# Procedure, shortened: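 Factor IXa activity followed via cleavage of CH3SO2-D-CHG-Gly-Arg-AFC, releasing AFC. Fluorescence read at excitation 405 nm, emission 510 nm.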
# Factor IXa, sequence (P00740 227-461 limits assumed): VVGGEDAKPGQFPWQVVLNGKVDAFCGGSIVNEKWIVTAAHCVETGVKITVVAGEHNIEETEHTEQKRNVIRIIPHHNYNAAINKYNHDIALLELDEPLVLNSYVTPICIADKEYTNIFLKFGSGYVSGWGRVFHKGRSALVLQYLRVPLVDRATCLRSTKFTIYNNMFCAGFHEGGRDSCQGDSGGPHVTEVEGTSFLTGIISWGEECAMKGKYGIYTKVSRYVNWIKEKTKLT
# Factor IXa, sequence (P00740 47-191 partner limits assumed): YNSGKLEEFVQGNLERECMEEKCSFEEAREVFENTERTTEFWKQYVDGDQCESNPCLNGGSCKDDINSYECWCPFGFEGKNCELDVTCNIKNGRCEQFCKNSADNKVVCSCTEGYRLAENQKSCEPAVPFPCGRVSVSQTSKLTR
row,Compound,IC50 [nM]
1,"C[C@]1([C@@H](O)C(=O)Nc2ccc3c(N)noc3c2)OCCN(c2cccc(-c3ccc(C(=O)O)cc3)n2)C1=O [Example 110, 4-(6-((R)-2-((R)-2-((3-aminobenzo[d]isoxazol-6-yl)amino)-1-hydroxy-2-oxoethyl)-2-methyl-3-oxomorpholino)pyridin-2-yl)benzoic acid]",455
2,"C[C@]1([C@@H](O)C(=O)Nc2ccc3c(N)noc3c2)OCCN(c2cccc(-c3ccc(C(F)(F)F)cc3C(=O)O)n2)C1=O [Example 111, 2-(6-((R)-2-((R)-2-((3-aminobenzo[d]isoxazol-6-yl)amino)-1-hydroxy-2-oxoethyl)-2-methyl-3-oxomorpholino)pyridin-2-yl)-5-(trifluoromethyl)benzoic acid]",972
3,"C[C@]1([C@@H](O)C(=O)Nc2ccc3c(N)noc3c2)OCCN(c2cccc(-c3ccnnc3)n2)C1=O [Example 112, (R)—N-(3-aminobenzo[d]isoxazol-6-yl)-2-hydroxy-2-((R)-2-methyl-3-oxo-4-(6-(pyridazin-4-yl)pyridin-2-yl)morpholin-2-yl)acetamide]",41.6
4,"C[C@]1([C@@H](O)C(=O)Nc2ccc3c(N)noc3c2)OCCN(c2cccc(-c3cnc(C(F)(F)F)nc3)n2)C1=O [Example 113, (R)—N-(3-aminobenzo[d]isoxazol-6-yl)-2-hydroxy-2-((R)-2-methyl-3-oxo-4-(6-(2-(trifluoromethyl)pyrimidin-5-yl)pyridin-2-yl)morpholin-2-yl)acetamide]",464
5,"C[C@]1([C@@H](O)C(=O)Nc2ccc3c(N)noc3c2)OCCN(c2cccc(-c3cnoc3)n2)C1=O [Example 114, (R)—N-(3-aminobenzo[d]isoxazol-6-yl)-2-hydroxy-2-((R)-4-(6-(isoxazol-4-yl)pyridin-2-yl)-2-methyl-3-oxomorpholin-2-yl)acetamide]",45.3
6,"Cc1nocc1-c1cccc(N2CCO[C@](C)([C@@H](O)C(=O)Nc3ccc4c(N)noc4c3)C2=O)n1 [Example 115, (R)—N-(3-aminobenzo[d]isoxazol-6-yl)-2-hydroxy-2-((R)-2-methyl-4-(6-(3-methylisoxazol-4-yl)pyridin-2-yl)-3-oxomorpholin-2-yl)acetamide]",68.2
7,"Cc1noc(C)c1-c1cccc(N2CCO[C@](C)([C@@H](O)C(=O)Nc3ccc4c(N)noc4c3)C2=O)n1 [Example 116, (R)—N-(3-aminobenzo[d]isoxazol-6-yl)-2-((R)-4-(6-(3,5-dimethylisoxazol-4-yl)pyridin-2-yl)-2-methyl-3-oxomorpholin-2-yl)-2-hydroxyacetamide]",93.5
8,"C[C@]1([C@@H](O)C(=O)Nc2ccc3c(N)noc3c2)OCCN(c2ccc3ccncc3n2)C1=O [Example 117, (R)—N-(3-aminobenzo[d]isoxazol-6-yl)-2-hydroxy-2-((R)-2-methyl-4-(1,7-naphthyridin-2-yl)-3-oxomorpholin-2-yl)acetamide]",544
9,"C[C@]1([C@@H](O)C(=O)Nc2ccc3c(N)noc3c2)OCCN(c2ccc3cc(C(F)(F)F)ncc3n2)C1=O [Example 118, (R)—N-(3-aminobenzo[d]isoxazol-6-yl)-2-hydroxy-2-((R)-2-methyl-3-oxo-4-(6-(trifluoromethyl)-1,7-naphthyridin-2-yl)morpholin-2-yl)acetamide]",101
10,"C[C@](O)(C(=O)Nc1cc(Cl)c2c(N)noc2c1)[C@H]1OCCN(c2ccn(-c3ccncc3)n2)C1=O [Example 119, (R)—N-(3-amino-4-chlorobenzo[d]isoxazol-6-yl)-2-hydroxy-2-((R)-3-oxo-4-(1-(pyridin-4-yl)-1H-pyrazol-3-yl)morpholin-2-yl)propanamide]",224
11,"C[C@](O)(C(=O)Nc1cc(Cl)c2c(N)noc2c1)[C@H]1OCCN(c2ccn(-c3ccnc(C(F)(F)F)c3)n2)C1=O [Example 120, (R)—N-(3-amino-4-chlorobenzo[d]isoxazol-6-yl)-2-hydroxy-2-((R)-3-oxo-4-(1-(2-(trifluoromethyl)pyridin-4-yl)-1H-pyrazol-3-yl)morpholin-2-yl)propanamide]",1050
12,"C[C@](O)(C(=O)Nc1cc(Cl)c2c(N)noc2c1)[C@H]1OCCN(c2nn(-c3ccnc(C(F)(F)F)c3)cc2F)C1=O [Example 121, (R)—N-(3-amino-4-chlorobenzo[d]isoxazol-6-yl)-2-((R)-4-(4-fluoro-1-(2-(trifluoromethyl)pyridin-4-yl)-1H-pyrazol-3-yl)-3-oxomorpholin-2-yl)-2-hydroxypropanamide]",193
13,"C[C@](O)(C(=O)Nc1cc(Cl)c2c(N)noc2c1)[C@H]1OCCN(c2ccn(-c3ccnnc3)n2)C1=O [Example 122, (R)—N-(3-amino-4-chlorobenzo[d]isoxazol-6-yl)-2-hydroxy-2-((R)-3-oxo-4-(1-(pyridazin-4-yl)-1H-pyrazol-3-yl)morpholin-2-yl)propanamide]",129
14,"C[C@](O)(C(=O)Nc1cc(Cl)c2c(N)noc2c1)[C@H]1OCCN(c2nn(-c3ccnnc3)cc2F)C1=O [Example 123, (R)—N-(3-amino-4-chlorobenzo[d]isoxazol-6-yl)-2-((R)-4-(4-fluoro-1-(pyridazin-4-yl)-1H-pyrazol-3-yl)-3-oxomorpholin-2-yl)-2-hydroxypropanamide]",21.8
15,"C[C@](O)(C(=O)Nc1cc(Cl)c2c(N)noc2c1)[C@H]1OCCN(c2nn(-c3cnnc(C#N)c3)cc2F)C1=O [Example 124, (R)—N-(3-amino-4-chlorobenzo[d]isoxazol-6-yl)-2-((R)-4-(1-(6-cyanopyridazin-4-yl)-4-fluoro-1H-pyrazol-3-yl)-3-oxomorpholin-2-yl)-2-hydroxypropanamide]",158
16,"COc1cc(-n2cc(F)c(N3CCO[C@H]([C@@](C)(O)C(=O)Nc4cc(Cl)c5c(N)noc5c4)C3=O)n2)cnn1 [Example 125, (R)—N-(3-amino-4-chlorobenzo[d]isoxazol-6-yl)-2-((R)-4-(4-fluoro-1-(6-methoxypyridazin-4-yl)-1H-pyrazol-3-yl)-3-oxomorpholin-2-yl)-2-hydroxypropanamide]",45
17,"C[C@](O)(C(=O)Nc1cc(Cl)c2c(N)noc2c1)[C@H]1OCCN(c2nn(-c3cnnc(C(F)(F)F)c3)cc2F)C1=O [Example 126, (R)—N-(3-amino-4-chlorobenzo[d]isoxazol-6-yl)-2-((R)-4-(4-fluoro-1-(6-(trifluoromethyl)pyridazin-4-yl)-1H-pyrazol-3-yl)-3-oxomorpholin-2-yl)-2-hydroxypropanamide]",31.6
18,"C[C@]1([C@@H](O)C(=O)Nc2cc(Cl)c3c(N)noc3c2)OCCN(c2ccn(-c3ccc(S(C)(=O)=O)cc3)n2)C1=O [Example 127, (R)—N-(3-amino-4-chlorobenzo[d]isoxazol-6-yl)-2-hydroxy-2-((R)-2-methyl-4-(1-(4-(methylsulfonyl)phenyl)-1H-pyrazol-3-yl)-3-oxomorpholin-2-yl)acetamide]",746
19,"C[C@]1([C@@H](O)C(=O)Nc2cc(Cl)c3c(N)noc3c2)OCCN(c2ccn(-c3ccncc3)n2)C1=O [Example 128, (R)—N-(3-amino-4-chlorobenzo[d]isoxazol-6-yl)-2-hydroxy-2-((R)-2-methyl-3-oxo-4-(1-(pyridin-4-yl)-1H-pyrazol-3-yl)morpholin-2-yl)acetamide]",224
20,"C[C@](O)(C(=O)Nc1cc(F)c2c(N)noc2c1)[C@H]1OCCN(c2ccn(-c3ccncc3)n2)C1=O [Example 129, (R)—N-(3-amino-4-fluorobenzo[d]isoxazol-6-yl)-2-hydroxy-2-((R)-3-oxo-4-(1-(pyridin-4-yl)-1H-pyrazol-3-yl)morpholin-2-yl)propanamide]",49.8
21,"Cc1cc(-n2ccc(N3CCO[C@H]([C@@](C)(O)C(=O)Nc4cc(F)c5c(N)noc5c4)C3=O)n2)ccn1 [Example 130, (R)—N-(3-amino-4-fluorobenzo[d]isoxazol-6-yl)-2-hydroxy-2-((R)-4-(1-(2-methylpyridin-4-yl)-1H-pyrazol-3-yl)-3-oxomorpholin-2-yl)propanamide]",211
22,"C[C@](O)(C(=O)Nc1cc(F)c2c(N)noc2c1)[C@H]1OCCN(c2ccn(-c3ccnc(C(F)(F)F)c3)n2)C1=O [Example 131, (R)—N-(3-amino-4-fluorobenzo[d]isoxazol-6-yl)-2-hydroxy-2-((R)-3-oxo-4-(1-(2-(trifluoromethyl)pyridin-4-yl)-1H-pyrazol-3-yl)morpholin-2-yl)propanamide]",95.2
23,"C[C@](O)(C(=O)Nc1cc(F)c2c(N)noc2c1)[C@H]1OCCN(c2ccn(-c3ccnc(C#N)c3)n2)C1=O [Example 132, (R)—N-(3-amino-4-fluorobenzo[d]isoxazol-6-yl)-2-((R)-4-(1-(2-cyanopyridin-4-yl)-1H-pyrazol-3-yl)-3-oxomorpholin-2-yl)-2-hydroxypropanamide]",117
24,"COc1cc(-n2ccc(N3CCO[C@H]([C@@](C)(O)C(=O)Nc4cc(F)c5c(N)noc5c4)C3=O)n2)ccn1 [Example 133, (R)—N-(3-amino-4-fluorobenzo[d]isoxazol-6-yl)-2-hydroxy-2-((R)-4-(1-(2-methoxypyridin-4-yl)-1H-pyrazol-3-yl)-3-oxomorpholin-2-yl)propanamide]",275
25,"C[C@](O)(C(=O)Nc1cc(F)c2c(N)noc2c1)[C@H]1OCCN(c2nn(-c3ccncc3)cc2F)C1=O [Example 134, (R)—N-(3-amino-4-fluorobenzo[d]isoxazol-6-yl)-2-((R)-4-(4-fluoro-1-(pyridin-4-yl)-1H-pyrazol-3-yl)-3-oxomorpholin-2-yl)-2-hydroxypropanamide]",55.2
26,"C[C@](O)(C(=O)Nc1cc(F)c2c(N)noc2c1)[C@H]1OCCN(c2ccn(-c3ccnnc3)n2)C1=O [Example 135, (R)—N-(3-amino-4-fluorobenzo[d]isoxazol-6-yl)-2-hydroxy-2-((R)-3-oxo-4-(1-(pyridazin-4-yl)-1H-pyrazol-3-yl)morpholin-2-yl)propanamide]",10.2
27,"C[C@](O)(C(=O)Nc1cc(F)c2c(N)noc2c1)[C@H]1OCCN(c2ccn(-c3cnnc(N4CCC4)c3)n2)C1=O [Example 136, (R)—N-(3-amino-4-fluorobenzo[d]isoxazol-6-yl)-2-((R)-4-(1-(6-(azetidin-1-yl)pyridazin-4-yl)-1H-pyrazol-3-yl)-3-oxomorpholin-2-yl)-2-hydroxypropanamide]",53.2
